Assay results: patent publication US9974778B2, “Substituted pyridinones as MGAT2 inhibitors” (BRISTOL-MYERS SQUIBB COMPANY, priority 2014, dated 2018)

Molecular target: T1, Human MGAT-2 (Homo sapiens, UniProt Q3SYC2)
T1 construct: made in house; host or cells: Sf9 cells (membrane preparation)
Assay: MGAT LCMS Assay
Format: biochemical
Conditions: human MGAT2 membranes expressed in Sf9 cells; 100 μM 2-oleoylglycerol, 15 μM oleoyl-coenzyme A; read-out: h-MGAT LCMS IC50
Procedure, shortened: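 Robotic enzyme reaction shaken 10 min, quenched with ice-cold methanol containing 1 μg/mL 1,2-distearoyl-rac-glycerol internal standard. Diolein product measured by LC/MS (C8 column, 65° C, APCI(+) triple quad). IC50 derived from diolein/internal standard peak area ratio.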

T1 sequence (Q3SYC2 whole entry): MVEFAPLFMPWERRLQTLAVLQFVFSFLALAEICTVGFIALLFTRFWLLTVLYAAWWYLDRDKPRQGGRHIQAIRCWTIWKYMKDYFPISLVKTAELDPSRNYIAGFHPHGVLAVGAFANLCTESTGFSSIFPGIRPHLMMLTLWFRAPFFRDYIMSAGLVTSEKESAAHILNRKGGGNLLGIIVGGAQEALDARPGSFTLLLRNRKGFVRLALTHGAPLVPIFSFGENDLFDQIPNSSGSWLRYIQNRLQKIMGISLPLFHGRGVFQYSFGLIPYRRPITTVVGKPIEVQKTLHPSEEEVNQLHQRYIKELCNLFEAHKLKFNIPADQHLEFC

CC1(C)CC=C(c2ccc(-c3cc(-c4ccn(CC5CC5)n4)c(-c4nn[nH]n4)c(=O)[nH]3)cc2)CC1 [Example 170, 4-[1-(Cyclopropylmethyl)-1H-pyrazol-3-yl]-6-[4-(4,4-dimethylcyclohex-1-en-1-yl)phenyl]-3-(2H-1,2,3,4-tetrazol-5-yl)-1,2-dihydropyridin-2-one]
IC50: 17 nM

CC(C)(C)C1CC=C(c2ccc(-c3cc(-c4ccn(CC5CC5)n4)c(-c4nn[nH]n4)c(=O)[nH]3)cc2)CC1 (stereo not shown) [Example 171, 6-[4-(4-tert-Butylcyclohex-1-en-1-yl)phenyl]-4-[1-(cyclopropylmethyl)-1H-pyrazol-3-yl]-3-(2H-1,2,3,4-tetrazol-5-yl)-1,2-dihydropyridin-2-one]
IC50: 6 nM

CC1(C)CCC(c2ccc(-c3cc(-c4ccn(CC5CC5)n4)c(-c4nn[nH]n4)c(=O)[nH]3)cc2)CC1 [Example 172, 4-[1-(Cyclopropylmethyl)-1H-pyrazol-3-yl]-6-[4-(4,4-dimethylcyclohexyl)phenyl]-3-(2H-1,2,3,4-tetrazol-5-yl)-1,2-dihydropyridin-2-one]
IC50: 26 nM

CCCC1CC=C(c2ccc(-c3cc(-c4ccn(CC5CC5)n4)c(-c4nn[nH]n4)c(=O)[nH]3)cc2)CC1 (stereo not shown) [Example 173, 4-[1-(Cyclopropylmethyl)-1H-pyrazol-3-yl]-6-[4-(4-propylcyclohex-1-en-1-yl)phenyl]-3-(2H-1,2,3,4-tetrazol-5-yl)-1,2-dihydropyridin-2-one]
IC50: 57 nM
